According to patent US10696693B2, “Fused imidazole derivatives as TGF-beta inhibitors” (Rigel Pharmaceuticals, Inc., priority 2014, dated 2020):
Read-outs that look alike come from different tables or passages of the source.

Key:
GDF8 = assay: AlphaScreen SureFire p-SMAD3 (Ser423/425) assay, GDF8-stimulated cells; assay type: cell-based; settings: Mus musculus
How it was run: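 Lysate (5 μL) went into 384-well shallow plates with 5 μL of Reaction Buffer, Activation Buffer and AlphaScreen Acceptor bead mix. Plates were sealed, kept dark and shaken for 2 hours at room temperature. Donor beads in dilution buffer (2 μL) were added for another 1½ hours, and p-SMAD3 signal was read on a Synergy-4 or Enspire reader.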

TGF-β = assay: AlphaScreen SureFire p-SMAD3 (Ser423/425) assay, TGF-β-stimulated cells; assay type: cell-based; settings: Mus musculus
How it was run: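 The p-SMAD-3 (Ser423/425) SureFire assay measured phosphorylation of endogenous SMAD-3 in cell lysates. Cells were plated overnight in collagen-coated plates, exposed to three-fold serially diluted compounds for about 10 minutes, then stimulated with TGFβ. Lysates (5 μL) received acceptor bead mix for 2 hours, then donor beads for 1½ hours before AlphaScreen reading.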

[1] = MPC-11, p-SMAD3 (Ser423/425) AlphaScreen in cell lysate, MPC11, GDF8 stimulation, read-out: GDF8: inhibition of GDF8 signaling, GDF pSMAD (MPC11)
[2] = p-SMAD3 (Ser423/425) AlphaScreen in cell lysate, MPC-11, TGF-β stimulation, read-out: TGF-β: inhibition of TGF-β signaling, TGF-β pSMAD (MPC-11)
[3] = MPC-11, read-out: GDF8: inhibition of GDF8 signaling, GDF pSMAD (MPC11), p-SMAD3 (Ser423/425) AlphaScreen in cell lysate, GDF8 stimulation
[4] = MPC-11, read-out: TGF-β: inhibition of TGF-β signaling, TGF-β pSMAD (MPC-11), p-SMAD3 (Ser423/425) AlphaScreen in cell lysate, TGF-β stimulation

SMILES	IC50 (GDF8; [1])	IC50 (TGF-β; [2])	IC50 (GDF8; [3])	IC50 (TGF-β; [4])
Cc1cccc(-c2nc3occn3c2-c2ccc3cn[nH]c3c2)c1 [Compound 140, 6-(m-tolyl)-5-(1H-indazol-6-yl)imidazo[2,1-b]oxazole]	< 50 nM	< 50 nM		
Cc1cccc(-c2nc3occn3c2-c2ccc3ncsc3c2)c1 [Compound 141, 5-(benzo[d]thiazo-6-yl)-6-(m-tolyl)imidazo[2,1-b]oxazole]	< 50 nM	< 50 nM		
Cc1cccc(-c2nc3occn3c2-c2ccc3nccnc3c2)c1 [Compound 142, 5-(quinoxalin-6-yl)-6-(m-tolyl)imidazo[2,1-b]oxazole]	< 50 nM	< 50 nM		
Cc1cccc(-c2nc3occn3c2-c2ccc3nccn3c2)c1 [Compound 143, 6-(m-tolyl)-5-(imidazo[1,2-a]pyridin-6-yl)imidazo[2,1-b]oxazole]	< 50 nM	< 50 nM		
Cc1cccc(-c2nc3occn3c2-c2ccc3ncccc3c2)c1 [Compound 144, 5-(quinolin-6-yl)-6-(m-tolyl)imidazo[2,1-b]oxazole]	< 50 nM	50 to 100 nM		
Fc1ccc(-c2nc3occn3c2-c2ccc3ncccc3c2)cc1F [Compound 145, 5-(quinolin-6-yl)-6-(3,4-difluorophenyl)imidazo[2,1-b]oxazole]	50 to 100 nM	100 to 1000 nM		
Fc1ccc(-c2nc3occn3c2-c2ccc3ncccc3c2)cc1 [Compound 146, 5-(quinolin-6-yl)-6-(4-fluorophenyl)imidazo[2,1-b]oxazole]	100 to 1000 nM	100 to 1000 nM		
Fc1cc(F)c(-c2nc3occn3c2-c2ccc3cn[nH]c3c2)cc1F [Compound 147, 6-(2,4,5-trifluorophenyl)-5-(1H-indazol-6-yl)imidazo[2,1-b]oxazole]	< 50 nM	50 to 100 nM		
Fc1cc(F)c(-c2nc3occn3c2-c2ccc3nccn3c2)cc1F [Compound 148, 6-(2,4,5-trifluorophenyl)-5-(imidazo[1,2-a]pyridin-6-yl)imidazo[2,1-b]oxazole]	< 50 nM	50 to 100 nM		
Fc1cc(F)c(-c2nc3occn3c2-c2ccc3nccnc3c2)cc1F [Compound 149, 5-(quinoxalin-6-yl)-6-(2,4,5-trifluorophenyl)imidazo[2,1-b]oxazole]	< 50 nM	50 to 100 nM		
Fc1cc(F)c(-c2nc3occn3c2-c2ccc3ncccc3c2)cc1F [Compound 150, 5-(quinolin-6-yl)-6-(2,4,5-trifluorophenyl)imidazo[2,1-b]oxazole]	< 50 nM	50 to 100 nM		
Fc1cc(F)c(-c2nc3occn3c2-c2ccc3ncsc3c2)cc1F [Compound 151, 5-(benzo[d]thiazol-6-yl)-6-(2,4,5-trifluorophenyl)imidazo[2,1-b]oxazole]	< 50 nM	< 50 nM		
Fc1cc(F)c(-c2nc3occn3c2-c2ccc3[nH]ncc3c2)cc1F [Compound 152, 6-(2,4,5-trifluorophenyl)-5-(1H-indazol-5-yl)imidazo[2,1-b]oxazole]	< 50 nM	50 to 100 nM		
Cc1ccc(-c2nc3occn3c2Br)c(F)c1 [Compound 153, 5-bromo-6-(2-fluoro-4-methylphenyl)imidazo[2,1-b]oxazole]	> 1000 nM	> 1000 nM		
Fc1ccc(-c2nc3occn3c2-c2ccc3[nH]ncc3c2)c(F)c1 [Compound 154, 6-(2,4-difluorophenyl)-5-(1H-indazol-5-yl)imidazo[2,1-b]oxazole]	< 50 nM	100 to 1000 nM		
Fc1ccc(-c2nc3occn3c2-c2ccc3cn[nH]c3c2)c(F)c1 [Compound 155, 6-(2,4-difluorophenyl)-5-(1H-indazol-6-yl)imidazo[2,1-b]oxazole]	50 to 100 nM	100 to 1000 nM		
Fc1ccc(-c2nc3occn3c2-c2ccc3ncsc3c2)c(F)c1 [Compound 156, 5-(benzo[d]thiazol-6-yl)-6-(2,4-difluorophenyl)imidazo[2,1-b]oxazole]	< 50 nM	50 to 100 nM		
Fc1ccc(-c2nc3occn3c2-c2ccc3nccnc3c2)c(F)c1 [Compound 157, 6-(2,4-difluorophenyl)-5-(quinoxalin-6-yl)imidazo[2,1-b]oxazole]	100 to 1000 nM	100 to 1000 nM		
Fc1ccc(-c2nc3occn3c2-c2ccc3ncccc3c2)c(F)c1 [Compound 158, 5-(quinolin-6-yl)-6-(2,4-difluorophenyl)imidazo[2,1-b]oxazole]	< 50 nM	50 to 100 nM		

SMILES	IC50 (GDF8; [1])	IC50 (TGF-β; [2])	IC50 (GDF8; [3])	IC50 (TGF-β; [4])
Fc1ccc(-c2nc3occn3c2-c2ccc3nccn3c2)c(F)c1 [Compound 159, 6-(2,4-difluorophenyl)-5-(imidazo[1,2-a]pyridin-6-yl)imidazo[2,1-b]oxazole]	< 50 nM	50 to 100 nM		
Fc1ccc(-c2nc3occn3c2-c2ccc3[nH]ncc3c2)c(F)c1F [Compound 160, 6-(2,3,4-trifluorophenyl)-5-(1H-indazol-5-yl)imidazo[2,1-b]oxazole]	50 to 100 nM	100 to 1000 nM		
Fc1ccc(-c2nc3occn3c2-c2ccc3ncsc3c2)c(F)c1F [Compound 161, 5-(benzo[d]thiazol-6-yl)-6-(2,3,4-trifluorophenyl)imidazo[2,1-b]oxazole]	50 to 100 nM	100 to 1000 nM		
Fc1ccc(-c2nc3occn3c2-c2ccc3ncccc3c2)c(F)c1F [Compound 162, 5-(quinolin-6-yl)-6-(2,3,4-trifluorophenyl)imidazo[2,1-b]oxazole]	50 to 100 nM	100 to 1000 nM		
Fc1ccc(-c2nc3occn3c2-c2ccc3nccn3c2)c(F)c1F [Compound 163, 5-(imidazo[1,2-a]pyridin-6-yl)-6-(2,3,4-trifluorophenyl)imidazo[2,1-b]oxazole]	50 to 100 nM	100 to 1000 nM		
Fc1ccc(-c2nc3occn3c2-c2ccc3nccnc3c2)c(F)c1F [Compound 164, 5-(quinoxalin-6-yl)-6-(2,3,4-trifluorophenyl)imidazo[2,1-b]oxazole]	100 to 1000 nM	100 to 1000 nM		
Fc1cc(F)c(F)c(-c2nc3n(c2-c2ccc4ncccc4c2)CCCN3)c1 [Compound 165, 6-(2-(2,3,5-trifluorophenyl)-5,6,7,8-tetrahydroimidazo[1,2-a]pyrimidin-3-yl)quinoline]	> 1000 nM	100 to 1000 nM		
Fc1cc(F)c(F)c(-c2nc3n(c2-c2ccc4ncnn4c2)CCCN3)c1 [Compound 166, 6-(2-(2,3,5-trifluorophenyl)-5,6,7,8-tetrahydroimidazo[1,2-a]pyrimidin-3-yl)-[1,2,4]triazolo[1,5-a]pyridine]	50 to 100 nM	50 to 100 nM		
COCCOc1cnc2ccc(-c3c(-c4cc(F)cc(F)c4F)nc4n3CCCN4)cc2n1 [Compound 167, 2-(2-methoxyethoxy)-7-(2-(2,3,5-trifluorophenyl)-5,6,7,8-tetrahydroimidazo[1,2-a]pyrimidin-3-yl)quinoxaline]	> 1000 nM	> 1000 nM		
Cc1cccc(-c2nc3n(c2-c2ccc4[nH]ncc4c2)CCC3)c1 [Compound 168, 5-(2-(m-tolyl)-6,7-dihydro-5H-pyrrolo[1,2-a]imidazol-3-yl)-1H-indazole]	< 50 nM	50 to 100 nM		
Cc1cccc(-c2nc3n(c2-c2ccc4cn[nH]c4c2)CCC3)c1 [Compound 169, 6-(2-(m-tolyl)-6,7-dihydro-5H-pyrrolo[1,2-a]imidazol-3-yl)-1H-indazole]	< 50 nM	50 to 100 nM		
Cc1cccc(-c2nc3n(c2-c2ccc4ncsc4c2)CCC3)c1 [Compound 170, 6-(2-(m-tolyl)-6,7-dihydro-5H-pyrrolo[1,2-a]imidazol-3-yl)benzo[d]thiazole]	< 50 nM	50 to 100 nM		
Cc1cccc(-c2nc3n(c2-c2ccc4[nH]cnc4c2)CCC3)c1 [Compound 171, 5-(2-(m-tolyl)-6,7-dihydro-5H-pyrrolo[1,2-a]imidazol-3-yl)-1H-benzo[d]imidazole]	50 to 100 nM	100 to 1000 nM		
Cc1cc(-c2nc3n(c2-c2ccc4[nH]ncc4c2)CCC3)ccc1F [Compound 172, 5-(2-(4-fluoro-3-methylphenyl)-6,7-dihydro-5H-pyrrolo[1,2-a]imidazol-3-yl)-1H-indazole]			< 50 nM	50 to 100 nM
Cc1cc(-c2nc3n(c2-c2ccc4ncsc4c2)CCC3)ccc1F [Compound 173, 6-(2-(4-fluoro-3-methylphenyl)-6,7-dihydro-5H-pyrrolo[1,2-a]imidazol-3-yl)benzo[d]thiazole]	< 50 nM	50 to 100 nM		
Fc1ccc(-c2nc3n(c2-c2ccc4ncsc4c2)CCC3)cc1 [Compound 174, 6-(2-(4-fluorophenyl)-6,7-dihydro-5H-pyrrolo[1,2-a]imidazol-3-yl)benzo[d]thiazole]			50 to 100 nM	100 to 1000 nM
Fc1ccc(-c2nc3n(c2-c2ccc4[nH]ncc4c2)CCC3)cc1 [Compound 175, 5-(2-(4-fluorophenyl)-6,7-dihydro-5H-pyrrolo[1,2-a]imidazol-3-yl)-1H-indazole]			100 to 1000 nM	100 to 1000 nM
Fc1ccc(-c2nc3n(c2-c2ccc4cn[nH]c4c2)CCC3)cc1 [Compound 176, 6-(2-(4-fluorophenyl)-6,7-dihydro-5H-pyrrolo[1,2-a]imidazol-3-yl)-1H-indazole]			100 to 1000 nM	> 1000 nM
